The values below come from patent publication US10138235B2, “Pyrazolopyridine derivatives, preparation process therefor and therapeutic use thereof” (SANOFI, priority 2011, dated 2018).

SMILES strings stand for the structures. A value given as a limit tells only on which side of the number the result lay.

The subject of data set [1] is HUVEC cells stimulated with FGF-2. The experiment in a line: In vitro angiogenesis of HUVEC cells induced with FGF-2 (length of pseudotubules). Format: cell-based, human. The following applies: concentration at which active on FGF-2-induced angiogenesis of HUVEC cells, evaluated from 0.03 nM to 300 nM; for minimal effective concentration: Homo sapiens, 24 h. Here is the method:
To do this, matrices composed of matrigel (growth factor reduced matrigel, Becton Dickinson 356230) and of collagen (rat tail collagen type I, Becton Dickinson 354236) are deposited in an amount of 160 μl into each chamberslide well (Biocoat Cellware collagen, Type I, 8-well culturesides: Becton dickinson 354630), or 60 μl per well of 96-plate wells (Biocoat collagenl cellware, Becton Dickinson 354407). The matrix is prepared by mixing ⅓ of matrigel, 1 mg/ml final of collagen, 0.1N NaOH (0.026× the volume of collagen in μl), PBS 1×, and the volume is then adjusted with water. The gels are kept for 1 hour at 37° C. to allow their polymerization. Next, the human venous endothelial cells (HUVEC ref.: C-12200—Promocell) were seeded at 15×10^3 or 6×10^3 cells/well in 400 or 120 μl (for the 8-well or 96-well plates, respectively) of EBM medium (Clonetics C3121)+2% FBS+hEGF 10 μg/ml. They are stimulated with 1 or 3 ng/ml of FGF-2 (R&D system, 133-FB-025; Invitrogen, PHG0026) for 24 hours at 37° C. in the presence of 5% CO2. After 24 hours, the length of the network of microtubules formed is measured by means of the computer-assisted image analysis system (Imagenia Biocom, Courtaboeuf, France) and the total length of the pseudotubules in each well is determined. The mean total length of the microcapillary network is calculated in μm for each condition corresponding to the mean on 6 replicates
Stimulation with FGF-2 allows induction of the formation of new tubules. An FGF-R antagonist is considered as being active in this test if it is capable of partially inhibiting this angiogenesis at a dose of less than or equal to 300 nM.
In this experiment, the molecules are evaluated from 0.03 nM to 300 nM depending on the molecule with regard to induction of the angiogenesis of human HUVEC cells with FGF-2. Compounds 38 (Example 2), 46 (Example 1), 53 (Example 3), 56 (Example 4), 57 (Example 6), 61 (Example 5), 75 (Example 12), 83 (Example 13), 88 (Example 8), 91 (Example 15), 93 (Example 14), 106 (Example 11), 108 (Example 7) and 114 (Example 9) are active since they have inhibitory activity on the formation of pseudotubules of greater than or equal to 20% at a dose of less than or equal to 300 nM (FIG. 1). In the following table, A=active for a concentration<1 nM, B=active at a concentration of 1 nM, C=active at a concentration of 3 nM, D=active at a concentration of 10 nM, E=active at a concentration of 30 nM, and F=active at a concentration of 300 nM.

In data set [2] the test system is inflammatory angiogenesis in mice. The experiment in a line: Model of inflammatory angiogenesis in mice (air pocket granuloma). Format: in vivo. The following applies: 30 mg/kg, after one week of treatment. Here is the method: The model described by Colville-N H et al. in 1995 makes it possible to study pharmacological agents that are capable of modulating the appearance of angiogenesis in an inflammatory context. The model is developed on female OF1 mice (Charles River laboratories) weighing about 25 g, and per group of 12. The animals are anaesthetized intraperitoneally with pentobarbital sodium (60 mg/kg; Sanofi Nutrition Santé Animale). An air pocket is created on the mouse's back by injecting 3 ml of air subcutaneously. After waking up, the animals receive a treatment in general by gavage and receive an injection of 0.5 ml of Freud's adjuvant (Sigma) with 0.1% croton oil (Sigma) into the pocket. Seven days later, the mice are again anaesthetized and placed on a hotplate at 40° C. 1 ml of carmine red (Aldrich Chemicals, 5% in 10% of gelatin) is injected into the caudal vein. The animals are then placed at 4° C. for 2-3 hours. The skins are then removed and dried for 24 hours in an oven at 56° C. […] The filtrates are read in a spectrophotometer at 492 nm against a calibration range of carmine red. […] The results are expressed as mean values (±sem). […]
The FGF-R antagonists are evaluated between 1 and 50 mg/kg using methylcellulose/Tween (0.6% v/v) as vehicle or any other vehicle that enables dissolution of the active principle. […]

`COc1cc(-c2cc(C(=O)O)c3cn[nH]c3n2)ccc1N` [Compound 38, 6-(4-Amino-3-methoxyphenyl)-1H-pyrazolo[3,4-b]pyridine-4-carboxylic acid]: the minimal effective concentration (as a rule, the smallest amount tested that counted as effective) in data set [1] came out at 0.003 µM. In data set [1], `NC(=O)c1cc(-c2ccc(F)c(C(=O)O)c2)nc2[nH]nc(-c3ccccc3)c12` [Compound 46, 5-(4-Carbamoyl-3-phenyl-1H-pyrazolo[3,4-b]pyridin-6-yl)-2-fluorobenzoic acid] gave a minimal effective concentration of under 0.001 µM. Also, the “weight of granuloma (dry weight of the skin)” value in data set [2] is recorded as “significantly reduces”. Turning to `O=C(O)c1cc(-c2cc(C(F)F)c3c(-c4ccccc4)n[nH]c3n2)ccc1F` [Compound 53, 5-[4-(Difluoromethyl)-3-phenyl-1H-pyrazolo[3,4-b]pyridin-6-yl)-2-fluorobenzoic acid], the minimal effective concentration in data set [1] was under 0.001 µM.

The compound `O=C(O)c1cc(-c2cc(C(F)(F)F)c3c(-c4ccccc4)n[nH]c3n2)ccc1F` [Compound 56, 2-Fluoro-5-[3-phenyl-4-(trifluoromethyl)-1H-pyrazolo[3,4-b]pyridin-6-yl]benzoic acid] showed a minimal effective concentration in data set [1] of under 0.001 µM. With `Cn1nc(-c2ccccc2)c2c(C(F)(F)F)cc(-c3ccc(N)c(C#N)c3)nc21` [Compound 57, 2-Amino-5-[1-methyl-3-phenyl-4-(trifluoromethyl)-1H-pyrazolo[3,4-b]pyridin-6-yl]benzonitrile], the melting point (commonly the temperature, or range, at which the solid turns liquid) came out at 269 °C. The compound further registered a minimal effective concentration in data set [1] of 0.003 µM. The compound `CN(C)c1ccc(-c2cc(C(F)(F)F)c3c(-c4ccccc4)n[nH]c3n2)cc1` [Compound 61, N,N-Dimethyl-4-[3-phenyl-4-(trifluoromethyl)-1H-pyrazolo[3,4-b]pyridin-6-yl]aniline] displayed a melting point of 227 °C. The compound also returned a minimal effective concentration in data set [1] of 0.001 µM. For `Cn1ncc2c(C(F)F)cc(-c3ccc(N)c(C#N)c3)nc21` [Compound 72, 2-Amino-5-[4-(difluoromethyl)-1-methyl-1H-pyrazolo[3,4-b]pyridin-6-yl]benzonitrile] the same measures were 251 °C and 0.01 µM. In turn, `N#Cc1cc(-c2cc(C(F)F)c3cn[nH]c3n2)ccc1N` [Compound 75, 2-Amino-5-[4-(difluoromethyl)-1H-pyrazolo[3,4-b]pyridin-6-yl]benzonitrile] gave a melting point of 263 °C. The compound also displayed a minimal effective concentration in data set [1] of 0.01 µM. On to `CN(C)CCn1ncc2c(C(F)F)cc(-c3ccc(N)c(C#N)c3)nc21` [Compound 83], for which, in data set [1], the Activity result is “D (D=active at a concentration of 10 nM)”.

In the case of `Cn1ncc2c(C(F)(F)F)cc(-c3ccc(N)c(C#N)c3)nc21` [Compound 88, 2-Amino-5-[1-methyl-4-(trifluoromethyl)-1H-pyrazolo[3,4-b]pyridin-6-yl]benzonitrile], the melting point came out at 276 °C. In data set [1], this compound yielded a minimal effective concentration of 0.003 µM. For `N#Cc1cc(-c2cc(C(F)F)c3c(-c4cccnc4)n[nH]c3n2)ccc1N` [Compound 91, 2-Amino-5-[4-(difluoromethyl)-3-(pyridin-3-yl)-1H-pyrazolo[3,4-b]pyridin-6-yl]benzonitrile] the same measures were 296 °C and 0.3 µM.

Regarding `Cn1nc(-c2cccnc2)c2c(C(F)(F)F)cc(-c3cccc(CN4CCOCC4)c3)nc21` [Compound 93], the Activity result in data set [1] is listed as “F (F=active at a concentration of 300 nM)”. For `Cn1cc2c(C(F)F)cc(-c3ccc(N)c(C#N)c3)nc2n1` [Compound 106, 2-Amino-5-[4-(difluoromethyl)-2-methyl-2H-pyrazolo[3,4-b]pyridin-6-yl]benzonitrile], the minimal effective concentration in data set [1] was under 0.001 µM. In turn, `Cn1nc2nc(-c3ccc(N)c(C#N)c3)cc(C(F)(F)F)c2c1-c1ccccc1` [Compound 108, 2-Amino-5-[2-methyl-3-phenyl-4-(trifluoromethyl)-2H-pyrazolo[3,4-b]pyridin-6-yl]benzonitrile] yielded a melting point of 295 °C. In data set [1], this compound registered a minimal effective concentration of 0.003 µM. As to `Cn1cc2c(C(F)(F)F)cc(-c3ccc(N)c(C#N)c3)nc2n1` [Compound 114, 2-Amino-5-[2-methyl-4-(trifluoromethyl)-2H-pyrazolo[3,4-b]pyridin-6-yl]benzonitrile], the melting point worked out at 249 °C. This compound also had a minimal effective concentration in data set [1] of 0.003 µM.
